Measured values as given in US20260069599A1, “INHIBITORS OF BROMODOMAIN-CONTAINING PROTEIN 4 AND PHOSPHOINOSITIDE 3-KINASE” (Board of Regents of the University of Nebraska, priority 2022, published 2026).
“Also recorded” adds a separate entry of the source.

Legend:
BRD2-BD2 = molecular target: T1, BRD2-BD2 (Homo sapiens, UniProt P25440); experiment: Protein Thermal Shift (PTS) assay on BRD2-BD2; assay type: binding; details: 100 μM ligand, 20 μM BD protein; positive = Tm increase
T1 construct: polyhistidine (N, cleaved yes); made in house; host or cells: E. coli (T7 express)
T1 sequence (P25440 344-453 limits assumed): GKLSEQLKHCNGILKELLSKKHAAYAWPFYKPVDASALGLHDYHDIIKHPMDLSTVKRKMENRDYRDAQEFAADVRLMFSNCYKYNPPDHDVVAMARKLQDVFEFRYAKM
Protocol: The genes encoding human BRD2-BD1, BRD2-BD2, and BRD4-BD2 were codon-optimized for expression in E. coli. […] The sequence-confirmed plasmids were used to transform T7 express E coli. Large-scale cell cultures were grown in LB media containing […] carbenicillin and incubated with shaking at 37° C. until the OD600 nm reached 0.6. Then cultures were cooled to 16° C., and 1 mM isopropyl β-D-1-thiogalactopyranoside was added to induce the protein expression. After 20 hours of incubation, cells were harvested. The resulting cell pellet was resuspended in a lysis buffer containing 50 mM Tris pH 7.5, 200 mM NaCl, 0.5 mM imidazole, and 0.3 mM tris(2-carboxyethyl) phosphine (TECP). After the addition of DNase I and lysozyme, the cell suspension was incubated on ice for 30 minutes and lysed by sonication. The lysate was clarified by centrifugation at 12,000 rpm for 45 minutes. […]
Each reaction used 20 μM concentration of recombinant BD protein in a 50 mM Tris pH 7.5 buffer containing 100 mM NaCl, 0.3 mM tris(2-carboxyethyl) phosphine HCl, and 1% dimethyl sulfoxide. […] Evaluation of the derivative of the fluorescence signal employed the Applied Bioscience Protein Thermal Shift Software version 1.3 to determine the average melting temperature (Tm) for each sample and the standard deviation(s) of those Tm values.

[1] = tested on: DAOY and HD-MB03 spheroids; experiment: Tumor spheroid live/dead assay; assay type: cell-based, human; details: 5.0 μM, 7 days
Protocol: Tumor spheroids were formed using MB cells following the method described (Bhattarai, et al. (2021) J. Control. Release 329:585-597). For tumor spheroids assay, 1500 and 500 DAOY and HD-MB03 cells, respectively, were suspended in 100 μL media and seeded in ultra-low attachment (ULA) 96-well plate for a week and 50 μL of media was replaced by fresh media every third day and spheroid size was tracked under fluorescent microscope. […] After 7 days of the treatment period, spheroids were stained with Calcein AM (2 μM) and ethidium homodimer-1 (3 μM) (LIVE/DEAD™; L3224) to check the live/dead cells. Images were taken by confocal laser microscope (Zesis LSM 710) with 10× magnification at 40 μm depth.

[2] = tested on: DAOY cell generated orthotopic MB; experiment: Intracranial orthotopic MB xenograft model; assay type: in vivo, NSG mice; details: for tumor at cerebellum region by H&E and Ki-67 IHC: vehicle-treated vs treated mice
Protocol: For the orthotopic MB model, stable luciferase-expressing DAOY cells (0.1×10^6) were used to generate the orthotopic MB tumor in NSG mice (Kumar, et al. (2021) Biomaterials 278:121138). Bioluminescence imaging using IVIS (Spectrum) was done to monitor the tumor growth weekly after implantation surgery.
A total of seven injections were given, and the mouse body weights were measured before every injection. The tumor growth was monitored by calipers in the case of the xenograft model and by IVIS imaging for the orthotopic model. For histological examination, the major organs of representative mice from each animal group were dissected and stained with H&E. Tissues after being fixed with 10% paraformaldehyde solution for 24 hours were embedded in 5 μm thick sections of paraffin, and were stained for different proteins. Stained slides were imaged at 40× magnification using an iScan HT Slide Scanner (Ventana Medical Systems, Inc, AZ).
Next, it was tested whether MDP5 treatment suppresses MB growth in an intracranial orthotopic xenograft model. DAOY cells stably expressing green fluorescent protein (GFP)/luciferase were injected into the cerebella of NSG mice. After twenty-one days of implantation, the tumor signal was measured with IVIS, and animals were divided into the vehicle (propylene glycol) or MDP5 treated groups. A drug solution was injected every three days for 28 days, and bioluminescence imaging was performed once a week.

MB cells = experiment: RT-qPCR of target genes; assay type: cell-based, human; details: RT-PCR
Protocol: Whole RNAs in cells after treatments were extracted using an RNA extraction kit (RNAeasy, Qiagen) to detect mRNA expression. cDNA templates were synthesized by reverse transcribing the RNA using a High-Capacity RNA-to-cDNA™ Kit (Thermo Fisher). The final RT-qPCR reaction mixture was used consisting of a total volume 10 μl containing […] SYBR Green master mix, 0.5 μl of each primer (10 μM) (Table 1), 2 μl of the cDNA template, and 3.5 μl RNase-free H2O. The relative expression level of the targeted gene was measured with Lightcycler 480 (Roche). The gene expression levels were calculated according to the 2^−ΔΔCq method using β-actin as the internal reference gene. Each assay was repeated≥3 times.

ONS-76 cells = experiment: CD15+ tumor propagating cell population by FACS; assay type: cell-based; details: 5.0 μM, 48 hours, vs control
Protocol: The tumor propagating cell population in ONS-76 cells was identified based on CD15+ staining by fluorescence-activated cell sorting (FACS) analysis. […] Then, cells were trypsinized and 1×10^6 cells stained with a 5 μL aliquot of APC-CD15 antibody (BioLegend; 301,908) and analyzed with flow cytometry (BD, LSR Fortessa).

[3] = tested on: MB cells (DAOY and HD-MB03); experiment: Colony formation (clonogenic) assay; assay type: cell-based, human; details: 48 hours treatment, 14-day incubation, both cell lines
Protocol: Approximately 500 MB cells were seeded overnight in 6 well plates and treated with MDP5 at IC50 for the colony formation assay. After 48 hours of incubation, the media was replaced by fresh media and allowed cells to grow for 2 weeks. Then, cells were fixed into 10% formalin and stained with a 0.5% solution of crystal violet dye in 20% methanol. After taking pictures, the colonies were dissolved in 10% acetic acid solution to measure the optical density.
Colony formation ability, cell cycle analysis, and cell apoptosis assay were performed in MB cells in presence of drugs as described (Kumar et al. (2021) Biomaterials 278:121138). For the colony formation assay, after taking images, the colonies were dissolved in 10% acetic acid solution to measure the optical density (OD).

Structure (SMILES) | change in BRD2-BD2 melting temperature (Tm) (BRD2-BD2) | cell viability of tumor spheroids [1] | tumor at cerebellum region by H&E and Ki-67 IHC [2] | BCL2 mRNA expression (MB cells; MB cells) | cyclin D1 gene expression (MB cells; vs control) | percentage of CD15+ cell population (ONS-76 cells) | size / formation of tumor spheroids ([1]; vs DMSO-treated control) | colony formation [3] | survival ([2]; control animals all dead by day 35) | orthotopic tumor growth (IVIS imaging) ([2]; injection every three days for 28 days) | bioluminescence (BLI) signal ([2]; vs rapid increase in control animals)
O=c1cc(N2CCOCC2)oc2c(-c3ccc4c(c3)OCCO4)csc12 [SF2523, reference compound] | 6.3 °C | significantly decreased | much larger tumor at the cerebellum region of the vehicle-treated mouse |  |  |  |  |  |  |  | 
O=c1cc(N2CCOCC2)oc2c(-c3ccc4c(c3)OCCO4)cccc12 [MDP5, 8-(2,3-dihydrobenzo [b][1,4]dioxin-6-yl)-2-morpholino-4H-chromen-4-one] | 2.4 °C | significantly decreased | much larger tumor at the cerebellum region of the vehicle-treated mouse | significantly reduced | decreased significantly | declined as compared to control cells | decreased the tumor spheroid formation in both MB cells | significant decrease in colony formation potential; also recorded: lower number of colonies in both cell lines; also recorded: significantly decreased the colony formation capacity | four animals out of five survived up to 49 days; also recorded: prolonged the survival | significant effect on the suppression of tumor growth; also recorded: significantly suppressed tumor growth in vivo | low BLI signal
